“And” between values parts separate entries of the source, which are not always exact repeats. Equal entries are not always repeated. Where no end group is shown, it is not given here. [ ]: non-standard residue; d: D form. Hyp = O=C(O)[C@@H]1C[C@@H](O)CN1
How the values were obtained:
Assay type in all cases: cell-based
human dermal fibroblasts [1] = assay: Sircol collagen assay, collagen synthesis by dermal fibroblasts; conditions: 0.5 mg/ml peptide, three weeks stimulation
Experimental: (§1) The human cells used were obtained from tebu-bio GmbH, Offenbach, Germany. The chondrocytes (Cat. No. 402-05a) or dermal fibroblasts (Cat. No. 106-05a) were first sown in 12-well culture plates and cultured at 37° C., 5% CO2 in Ham's F12 medium, to which 10% fetal calf serum, 20 U/ml penicillin-streptomycin and 50 μg/ml ascorbic acid were added. On every other day, the culture medium was replaced by new culture medium until the cells had reached 80% confluence. […] To investigate the collagen metabolism, the amount of newly synthesized collagen was determined after stimulating the cells with 0.5 mg/ml BCP for three weeks. The synthesized collagen was isolated using the Sircol assay (Article No. 054S5000, 2019, tebu-bio, Offenbach, Germany, or Biocolor Ltd., UK) according to the manufacturer's instructions. In brief, the culture medium was initially discarded and the adherent cell layers were digested with 0.1 mg pepsin solution in 0.5 M acetic acid at 4° C. overnight. The cell suspensions were neutralized by adding 100 μl of an acid-neutralizing reagent. The synthesized collagen was then separated off by adding 200 μl of an isolation and concentration solution with vigorous shaking at 4° C. overnight. After centrifugation (12,000 rpm, 10 min) and discarding the supernatant, the isolated collagen was resuspended in 1 ml of Sircol dye solution. After 30 minutes of shaking and another centrifugation, the collagen pellet was covered with 750 μl of cold acidic solid washing reagent. After another centrifugation, the supernatant was again discarded and the enriched collagen was taken up in 250 μl of alkaline solution. In each case 200 μl of the sample solutions were used for photometric quantification of the synthesized collagen. The absorbance was measured at a wavelength of 492 nm. The amount of collagen synthesized in each case was determined on the basis of standardized collagen solutions.

human chondrocytes [2] = assay: Sircol collagen assay, collagen synthesis by chondrocytes; conditions: 0.5 mg/ml peptide, three weeks stimulation
Experimental: as §1

human dermal fibroblasts [3] = assay: Blyscan glycosaminoglycan assay, proteoglycan synthesis by dermal fibroblasts; conditions: 0.5 mg/ml, two weeks stimulation; for increase in the synthesis of proteoglycans by dermal fibroblasts compared to untreated controls: hydroxylated peptides
Experimental: The human cells used were obtained from tebu-bio GmbH, Offenbach, Germany. The chondrocytes (Cat. No. 402-05a) or dermal fibroblasts (Cat. No. 106-05a) were first sown in 12-well culture plates and cultured at 37° C., 5% CO2 in Ham's F12 medium, to which 10% fetal calf serum, 20 U/ml penicillin-streptomycin and 50 μg/ml ascorbic acid were added. On every other day, the culture medium was replaced by new culture medium until the cells had reached 80% confluence. […] The Blyscan glycosaminoglycan assay (Article No. 054B3000, 2019, tebu-bio, Offenbach, Germany, or Biocolor Ltd., UK) was used to determine proteoglycans. The biosynthesis of proteoglycans was determined after stimulating dermal fibroblasts for two weeks. According to the manufacturer's instructions, after discarding the culture medium, the cell layers were covered with 1 ml of papain extraction solution and incubated for three hours at 65° C. with vigorous shaking. The cell suspensions were then centrifuged (10,000 g, 10 min) and the supernatants were collected. After adding 1 ml of Blyscan dye solution and shaking (30 min), the supernatants were centrifuged again (12,000 rpm, 10 min) and then discarded. The isolated proteoglycan pellets were resuspended in 500 μl of dissociation solution. A photometric determination of the synthesized proteoglycan in 200 μl sample solution was carried out at a wavelength of 656 nm in comparison to untreated control experiments.

human chondrocytes [4] = assay: Blyscan glycosaminoglycan assay, proteoglycan synthesis by chondrocytes; conditions: 0.5 mg/ml; for increase in collagen synthesis (in the proteoglycan assay, chondrocytes): hydroxylated peptides

| Substance | increase in collagen synthesis by dermal fibroblasts compared to untreated controls (human dermal fibroblasts [1]) [%] | increase in collagen synthesis by chondrocytes compared to untreated controls (human chondrocytes [2]) [%] | increase in the synthesis of proteoglycans by dermal fibroblasts compared to untreated controls (human dermal fibroblasts [3]) [%] | increase in collagen synthesis (in the proteoglycan assay, chondrocytes) (human chondrocytes [4]) | increase in collagen synthesis (in the proteoglycan assay, dermal fibroblasts) (human dermal fibroblasts [3]; non-hydroxylated peptides) [%] | increase in the synthesis of proteoglycans by chondrocytes compared to untreated controls (human chondrocytes [4]; non-hydroxylated peptides) [%] |
| --- | --- | --- | --- | --- | --- | --- |
| Gly-Ala-4Hyp-Gly-Lys-Asp-Gly-Val-Arg-Gly-Leu-Thr-Gly-Pro-Ile-Gly-Pro-4Hyp-Gly-Pro-Ala-Gly-Ala-Arg (GA[Hyp]GKDGVRGLTGPIGP[Hyp]GPAGAR) [SEQ ID No. 9, collagen peptide comprising 24 amino acids] | 38 | 24 | 27 | 19% | – | – |
| Gly-Ala-4Hyp-Gly-Pro-Pro-Gly-Pro-4Hyp-Gly-Ala-Arg-Gly-Gln-Ala-Gly-Val-Met-Gly-Phe-4Hyp-Gly-Pro-Lys [SEQ ID No. 10] | 35 | 20 | 25 | 29% | – | – |
| Gly-Pro-4Hyp-Gly-Pro-Ala-Gly-Glu-Lys-Gly-Ala-4Hyp-Gly-Ala-Asp-Gly-Pro-Ala-Gly-Ala-4Hyp-Gly-Thr-Pro-Gly-Pro-Gln-Gly-Ile-Ala-Gly-Gln-Arg-Gly-Val (GP[Hyp]GPAGEKGA[Hyp]GADGPAGA[Hyp]GTPGPQGIAGQRGV) [SEQ ID No. 22, collagen peptide comprising 35 amino acids] | 43 | 46 | 28 | 26% | – | – |
| Gly-Pro-4Hyp-Gly-Pro-Val-Gly-Thr-Lys-Gly-Ile-4Hyp-Gly-Val-Tyr-Gly-Pro-Leu-Gly-Ile-4Hyp-Gly-Thr-Pro-Gly-Pro-Trp-Gly-Ile-Leu-Gly-Thr-Lys-Arg-Gly-Val (GP[Hyp]GPVGTKGI[Hyp]GVYGPLGI[Hyp]GTPGPWGILGTKRGV) [SEQ ID No. 24, collagen peptide comprising 36 amino acids] | 36 | 26 | 26 | 15% and 26% | – | – |
| Gly-Val-4Hyp-Gly-Lys-Tyr-Gly-Val-Arg-Gly-Leu-Thr-Gly-Pro-Ile-Gly-Pro-4Hyp-Gly-Pro-Leu-Gly-Ile-4Hyp-Gly-Trp-Lys-Gly-Phe-Val-Gly-Pro-Thr (GV[Hyp]GKYGVRGLTGPIGP[Hyp]GPLGI[Hyp]GWKGFVGPT) [SEQ ID No. 23, collagen peptide comprising 33 amino acids] | 39 | 19 | 22 | 11% | – | – |
| KGAPGADGPAGAPGTPGPQ [SEQ ID No. 15, collagen peptide comprising 19 amino acids] | 23 | 31 | – | – | 18 | 6 |
| Lys-Gly-Ala-4Hyp-Gly-Ala-Asp-Gly-Pro-Ala-Gly-Ala-4Hyp-Gly-Thr-Pro-Gly-Pro-Gln (KGA[Hyp]GADGPAGA[Hyp]GTPGPQ) [SEQ ID No. 21, collagen peptide comprising 19 amino acids] | 36 | 55 | 27 | 22% | – | – |
